Values of other authors, collected in patent publication US20080185562A1, “Oxalate ester chemiluminescent light system” (Tianjin Dragon Chemiluminescent Tubes Co., Ltd., priority 2007, published 2008).

How the values were obtained:
[1] = PEG value depends on molecular weight
[2] = at 122° C.
rats = details: rat

Structure (SMILES) | Flash point (° C./° F.) [1] | Toxicity (LD50 oral, mg/kg) (mus) | Vapor pressure (kPa) [2] [at 122 °C kPa] | Toxicity (LD50 oral, mg/kg) (rats)
OCCCO [1,3-propylene glycol] | 79/174 | 4,770 (mus) mg/kg | – | –
CCCCOCCOCCOCCCC [dibutyl diethylene glycol ether] | 117/243 | – | 1.33 | 3,900 (rat) mg/kg
